Data taken from article PMC9442423, “Extracellular loop 2 of G protein–coupled olfactory receptors is critical for odorant recognition” (The Journal of Biological Chemistry, 2022).

The compounds below were run against T1, mOR256-3 (Mus musculus, UniProt Q0VEF0) (assay: CRE-luciferase cAMP reporter in Hana3A cells, dose-response fit). Conditions: agonist; 4 h, 37 °C, 5% CO2.
T1 construct: gene Olfr124; full-length receptor from Dr H. Matsunami, expressed in Hana3A cells; surface detected by antirhodopsin antibody
T1 sequence (Q0VEF0 1-315): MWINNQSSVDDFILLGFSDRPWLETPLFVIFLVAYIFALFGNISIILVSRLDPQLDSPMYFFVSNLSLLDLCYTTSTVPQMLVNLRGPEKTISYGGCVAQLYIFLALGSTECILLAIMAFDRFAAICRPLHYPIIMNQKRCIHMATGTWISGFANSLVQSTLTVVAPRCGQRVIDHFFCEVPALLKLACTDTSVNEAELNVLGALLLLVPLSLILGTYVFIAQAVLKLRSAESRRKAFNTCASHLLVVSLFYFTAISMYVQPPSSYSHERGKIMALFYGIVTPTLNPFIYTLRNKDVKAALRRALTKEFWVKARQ
Format: cell-based

Which EC50 does the source give for `O=c1ccc2ccccc2o1` [coumarin] here?
The EC50 was “Ten odorants activated mOR256-3 in a dose-dependent manner”.

Which EC50 does the source give for `CCCCCC(C)=O` [2-heptanone] here?
The EC50 was “Ten odorants activated mOR256-3 in a dose-dependent manner”.

How did the EC50 turn out when `CCCCCCCC(=O)O` [octanoic acid] was run?
Its EC50 is “Ten odorants activated mOR256-3 in a dose-dependent manner”.

For `CC(=O)OCc1ccccc1` [benzyl acetate], which EC50 is on record?
Its EC50 is “Ten odorants activated mOR256-3 in a dose-dependent manner”.

Which EC50 does the source give for `CCCCCCCC=O` [octanal] here?
The EC50 was “Ten odorants activated mOR256-3 in a dose-dependent manner”.

For `C=C(C)[C@@H]1CC=C(C)C(=O)C1` [R-carvone], which EC50 is on record?
The EC50 was “Ten odorants activated mOR256-3 in a dose-dependent manner”.

Which EC50 does the source give for `CC(C)=CCC/C(C)=C/CO` [geraniol] here?
The EC50 was “Ten odorants activated mOR256-3 in a dose-dependent manner”.

How did the EC50 turn out when `C=CCOC(=O)Cc1ccccc1` [allyl phenylacetate] was run?
The EC50 was “Ten odorants activated mOR256-3 in a dose-dependent manner”.

Which EC50 does the source give for `CCCCCCCCO` [1-octanol] here?
The EC50 was “Ten odorants activated mOR256-3 in a dose-dependent manner”.

Same assay, conditions: agonist; 4 h, 37 °C, 5% CO2; E/Z composition of citral not stated

With `CC(C)=CCCC(C)=CC=O` [citral] as the compound, how does the EC50 read?
The EC50 was “Ten odorants activated mOR256-3 in a dose-dependent manner”.

These compounds were tested against T1, mOR256-3 (assay: CRE-luciferase cAMP reporter in Hana3A cells, inhibition of odorant response). Conditions: antagonist against R-carvone, coumarin and geraniol.
Format: cell-based

`O=Cc1ccccc1` [benzaldehyde] was tested. Which “CRE-luciferase cAMP reporter in Hana3A cells, inhibition of odorant response” value did it give?
Its value is “Benzaldehyde antagonized R-carvone, coumarin, and geraniol”.
